# Read-outs that look alike come from different tables or passages of the source. No end group written: not given here.
# Experiments:
# [1] = system: Bordatella bronchiseptica (Bb); format: cell-based
# Method: (§1) The following strains were assessed vs. Staphylococcus epidermidis (Se), Pseudomonas aeruginosa (Pa), Streptococcus dysgalactiae (Sd), Pasteurella multocida (Pm), Streptococcus agalactiae (Sa), Streptococcus uberis (Su), Streptococcus suis (Ss), Mannheimia haemolytica (Mh), Bordatella bronchiseptica (Bb), Histophilus somnus (Hs), and Staphylococcus pseudintermedius (Sp) (Table 18) for Minimal Inhibitory Concentrations (MIC). Italics=excellent activity (less than or equal to 4 μg/ml).
# [2] = system: Histophilus somnus (Hs); format: cell-based
# Method: as §1
# [3] = system: Mannheimia haemolytica (Mh); format: cell-based
# Method: as §1
# [4] = system: Pasteurella multocida (Pm); format: cell-based
# Method: as §1
# [5] = system: Pseudomonas aeruginosa (Pa); format: cell-based
# Method: as §1
# [6] = system: Staphylococcus epidermidis (Se); format: cell-based
# Method: as §1
# [7] = system: Staphylococcus pseudintermedius (Sp); format: cell-based
# Method: as §1
# [8] = system: Streptococcus agalactiae (Sa); format: cell-based
# Method: as §1
# [9] = system: Streptococcus dysgalactiae (Sd); format: cell-based
# Method: as §1
# [10] = system: Streptococcus suis (Ss); format: cell-based
# Method: as §1
# [11] = system: Streptococcus uberis (Su); format: cell-based
# Method: as §1
# [12] = system: E. coli (Ec); format: cell-based
# [13] = system: S. aureus (Sau); format: cell-based
# [14] = system: Bordatella bronchiseptica (Bb); format: cell-based; remark: listed apart in the source
# Method: (§2) The same strains as in Table 18 were assessed for Minimal Biofilm Inhibitory Concentrations (MBIC) (Table 19). Italics=excellent activity (less than or equal to 4 μg/ml). ND=Not determined. Peptides 3013, 3015 and 3016 inhibited biofilm growth in the largest number of bacterial strains (5, 5 and 6 out of 13 strains, respectively).
# [15] = system: Histophilus somnus (Hs); format: cell-based; remark: listed apart in the source
# Method: as §2
# [16] = system: Pasteurella multocida (Pm); format: cell-based; remark: listed apart in the source
# Method: as §2
# [17] = system: Pseudomonas aeruginosa (Pa); format: cell-based; remark: listed apart in the source
# Method: as §2
# [18] = system: Staphylococcus epidermidis (Se); format: cell-based; remark: listed apart in the source
# Method: as §2
# [19] = system: Staphylococcus pseudintermedius (Sp); format: cell-based; remark: listed apart in the source
# Method: as §2
# [20] = system: Streptococcus agalactiae (Sa); format: cell-based; remark: listed apart in the source
# Method: as §2
# [21] = system: Streptococcus dysgalactiae (Sd); format: cell-based; remark: listed apart in the source
# Method: as §2
# [22] = system: Streptococcus suis (Ss); format: cell-based; remark: listed apart in the source
# Method: as §2
# [23] = system: Streptococcus uberis (Su); format: cell-based; remark: listed apart in the source
# Method: as §2
# [24] = system: E. coli (Ec); format: cell-based; remark: listed apart in the source
# Method: as §2
# (§3) In addition, several peptides expressed preferential activity vs. biofilms (MBIC) cf. planktonic cells (MIC) (Table 20).
# [25] = system: S. aureus (Sau); format: cell-based; remark: listed apart in the source
# Method: as §2, §3
# [26] = system: planktonic methicillin resistant S. aureus; test: microbe, parasite or virus in culture; format: cell-based, Staphylococcus aureus
# [27] = system: PBMCs; test: Cytotoxicity towards PBMCs, lactate dehydrogenase (LDH) release assay (Tables 6, 7); conditions: SPOT synthesized peptide ~25 μM, PBMCs from 3 human donors; Table 6
# [28] = system: Mannheimia haemolytica (Mh); format: cell-based; remark: listed apart in the source
# Method: as §2
# [29] = planktonic methicillin resistant
# [30] = planktonic methicillin resistant S. aureus, broth microdilution in Mueller Hinton Broth (MHB), mean of three biological replicates
# [31] = planktonic methicillin resistant S. aureus, broth microdilution in Tryptic Soy Broth (TSB) supplemented with 1% glucose, mean of three biological replicates
Substance,MIC Bb [1] [µg/mL],MIC Hs [2] [µg/mL],MIC Mh [3] [µg/mL],MIC Pm [4] [µg/mL],MIC Pa [5] [µg/mL],MIC Se [6] [µg/mL],MIC Sp [7] [µg/mL],MIC Sa [8] [µg/mL],MIC Sd [9] [µg/mL],MIC Ss [10] [µg/mL],MIC Su [11] [µg/mL],MIC E. coli ([12]; Ec) [µg/mL],MIC Ec ([12]; Ec) [µg/mL],MIC S. aureus ([13]; Sau) [µg/mL],MIC Sau ([13]; Sau) [µg/mL],MBIC E. coli ([24]; Ec) [µg/mL],MBIC S. aureus ([25]; Sau) [µg/mL],"MIC (μM) MHB [26, 29] [µM]","MIC (μM) TSB with 1% Glucose [26, 29] [µM]",% Toxicity (LDH Release) [27] [%],further results
"AVAKWALKLWKQ-NH2 [Peptide 3009, AVAKWALKLWKQ]",>64,64,>64,>64,>64,>64,4,>64,32,>64,32,>64,>64,>64,>64,32,64,>64,>64,−3.2,MBIC [14]: 64 µg/mL; MBIC [15]: 16 µg/mL; MBIC [16]: 16 µg/mL; MBIC [17]: >64 µg/mL; MBIC [18]: >64 µg/mL; MBIC [19]: 8 µg/mL; MBIC [20]: >64 µg/mL; MBIC [21]: 16 µg/mL; MBIC [22]: 16 µg/mL; MBIC [23]: 16 µg/mL; MBIC ([24]; Ec): 32 µg/mL; MBIC ([25]; Sau): 64 µg/mL
"AVKWLGWILAKK-NH2 [Peptide 3016, AVKWLGWILAKK]",64,16,>64,>64,>64,>64,8,8,>64,32,16,64,64,>64,>64,32,4,>64,>64,0.8,MBIC [14]: 64 µg/mL; MBIC [15]: 4 µg/mL; MBIC [28]: >64 µg/mL; MBIC [16]: 8 µg/mL; MBIC [17]: 32 µg/mL; MBIC [18]: 4 µg/mL; MBIC [19]: 8 µg/mL; MBIC [20]: 64 µg/mL; MBIC [21]: >64 µg/mL; MBIC [22]: 32 µg/mL; MBIC [23]: 8 µg/mL; MBIC ([24]; Ec): 32 µg/mL; MBIC ([25]; Sau): 4 µg/mL
"KIVIRIILQVIK-NH2 [Peptide 3015, KIVIRIILQVIK]",64,>64,>64,64,64,>64,16,>64,32,64,64,>64,>64,>64,>64,64,64,64,>64,−3.8,MBIC [14]: >64 µg/mL; MBIC [15]: 16 µg/mL; MBIC [28]: 16 µg/mL; MBIC [16]: 1 µg/mL; MBIC [17]: 32 µg/mL; MBIC [18]: 2 µg/mL; MBIC [19]: 8 µg/mL; MBIC [20]: >64 µg/mL; MBIC [21]: 4 µg/mL; MBIC [22]: 64 µg/mL; MBIC [23]: 4 µg/mL; MBIC ([24]; Ec): 64 µg/mL; MBIC ([25]; Sau): 64 µg/mL
"LAGLIVKWAGVR-NH2 [Peptide 3017, LAGLIVKWAGVR]",>64,>64,>64,>64,>64,>64,>64,32,>64,>64,64,>64,>64,>64,>64,>64,4,>64,>64,5.9,MBIC [14]: >64 µg/mL; MBIC [15]: 32 µg/mL; MBIC [28]: >64 µg/mL; MBIC [16]: >64 µg/mL; MBIC [17]: >64 µg/mL; MBIC [18]: >64 µg/mL; MBIC [19]: 64 µg/mL; MBIC [20]: >64 µg/mL; MBIC [21]: >64 µg/mL; MBIC [22]: >64 µg/mL; MBIC [23]: 16 µg/mL; MBIC ([24]; Ec): >64 µg/mL; MBIC ([25]; Sau): 4 µg/mL
"RRQWRGWVRIWL-NH2 [Peptide 3005, RRQWRGWVRIWL]",–,–,–,–,–,–,–,–,–,–,–,4,–,8,–,2,1,4,64,−4.2,–
"RVKAIKWRKIVV-NH2 [Peptide 3012, RVKAIKWRKIVV]",–,–,–,–,–,–,–,–,–,–,–,64,–,>64,–,32,8,>64,>64,2.8,–
"VIKWLLKILRAI-NH2 [Peptide 3001, VIKWLLKILRAI]",–,–,–,–,–,–,–,–,–,–,–,4,–,2,–,2,<1,1,2,64.4,–
"VLKIKVKIWVVK-NH2 [Peptide 3007, VLKIKVKIWVVK]",–,–,–,–,–,–,–,–,–,–,–,–,–,–,–,–,–,–,–,2,"MIC E. coli ([12]; planktonic cells, Table 20): 8 µg/mL; MIC S. aureus ([13]; planktonic cells, Table 20): 16 µg/mL; MBIC E. coli ([24]; biofilms, Table 20): 4 µg/mL; MBIC S. aureus ([25]; biofilms, Table 20): 2 µg/mL; MIC (μM) MHB [26, 30]: 16 µM; MIC (μM) TSB with 1% Glucose [26, 31]: >64 µM"
"VLQIKKVLRLLL-NH2 [Peptide 3011, VLQIKKVLRLLL]",–,–,–,–,–,–,–,–,–,–,–,–,–,–,–,–,–,–,–,15.7,"MIC E. coli ([12]; planktonic cells, Table 20): 8 µg/mL; MIC S. aureus ([13]; planktonic cells, Table 20): 64 µg/mL; MBIC E. coli ([24]; biofilms, Table 20): 4 µg/mL; MBIC S. aureus ([25]; biofilms, Table 20): 2 µg/mL; MIC (μM) MHB [26, 30]: 8 µM; MIC (μM) TSB with 1% Glucose [26, 31]: 16 µM"
"VQRIIWLRVKIV-NH2 [Peptide 3023, VQRIIWLRVKIV]",–,–,–,–,–,–,–,–,–,–,–,2,–,4,–,1,2,16,>64,−3,–
"WKKVQWLKRLLL-NH2 [Peptide 3003, WKKVQWLKRLLL]",–,–,–,–,–,–,–,–,–,–,–,4,–,16,–,2,1,4,16,22.5,–
"WQGWAKIWVVRI-NH2 [Peptide 3019, WQGWAKIWVVRI]",–,–,–,–,–,–,–,–,–,–,–,4,–,4,–,2,2,8,32,−3.1,–
"WVGVIIKWGLKL-NH2 [Peptide 3018, WVGVIIKWGLKL]",–,–,–,–,–,–,–,–,–,–,–,4,–,2,–,2,1,2,4,−0.3,–

# — patent US20210138025A1, “CATIONIC PEPTIDES WITH IMMUNOMODULATORY AND/OR ANTI-BIOFILM ACTIVITIES” (priority 2018, published 2021)
